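Test compounds were applied to cells in 96-well plates for 48 hours at 5 doses. GI50 is the concentration that inhibits growth by half. The concentration for full growth arrest is given as TGI.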 *1 amine or outer side, *2 acyl side, *3 side chain or, on linkers, in order; H or OH if unused. Where a SMILES comes first, the peptide text is derived from it. Bridges are numbered along the chain shown (N, C = ends). [ ]: non-standard residue; d: D form. The star is where a group is joined. Phe(3-Me) = Cc1cccc(C[C@H](N)C(=O)O)c1; NH(4-Cl-2-F-phenyl) = Fc1cc(Cl)ccc1N*; Pro(4R-Me) = C[C@H]1CN[C@H](C(=O)O)C1; Propanoyl(3-NMe2) = CN(C)CCC(=O)*; Hyp = O=C(O)[C@@H]1C[C@@H](O)CN1; aThr = C[C@H](O)[C@H](N)C(=O)O; Pip = O=C(O)[C@@H]1CCCCN1; CO = O=C([*:1])[*:2]
Assays:
Assay in all cases: inhibition of tumour cell growth, NCI panel, 48 h
[1] = system: A498 renal
[2] = system: HOP-62 NSCLC
[3] = system: PC-3 prostate
[4] = system: 786-0 renal
[5] = system: SF-268 CNS
[6] = system: HCC-2998 colon
[7] = system: MALME-3M melanoma

| Structure (SMILES) | GI50 [1] [µM] | TGI [1] [µM] | GI50 [2] [µM] | TGI [2] [µM] | GI50 [3] [µM] | TGI [3] [µM] | GI50 [4] [µM] | TGI [4] [µM] | GI50 [5] [µM] | TGI [5] [µM] | GI50 [6] [µM] | TGI [6] [µM] | GI50 [7] [µM] | TGI [7] [µM] |
| --- | --- | --- | --- | --- | --- | --- | --- | --- | --- | --- | --- | --- | --- | --- |
| COc1cc2c3c(c4c5ccccc5[nH]c4c2c(OC)c1OC)C(=O)N(CCN1CCCCC1)C3=O | 1.35 | 4.87 | 0.721 | 2.79 | 1.22 | 2.64 | 1.27 | 2.87 | 1.15 | 2.96 | 1.32 | 3.45 | 1.36 | 2.85 |
| COc1ccc(CNc2nc(NCc3ccc(OC)cc3)c3n[nH]c(C(C)C)c3n2)cc1 | 2.21 | 16.7 | 10 | 24.4 | 4.29 | 23.8 | 4.07 | 20.6 | 5.58 | 26.3 | 2.43 | 5.99 | 7.5 | > 100 |
| CC(=O)Nc1sc2c(c1-c1nc3ccccc3s1)CNC2 | 7.4 | 14.9 | 2.38 | 15.8 | 3.37 | 18.4 | 2.61 | 9.6 | 2.94 | 15 | 2.58 | 9.92 | 2.21 | 8.75 |
| Nc1nc2c(c3cnccc13)C(c1cccc(Cl)c1)Cc1cnccc1-2 (stereo not given) | 0.275 | 0.852 | 0.441 | 16.3 | 0.439 | 1.66 | 0.396 | 10.6 | 0.741 | 16.5 | 1.29 | 12.8 | 0.419 | 17.8 |
| O=C(O)/C=C\C(=O)Nc1ccc2c(c1)C(=O)c1cc(F)ccc1-2 | – | > 100 | – | > 100 | – | > 100 | – | > 100 | – | > 100 | – | – | – | > 100 |
| O=C1c2cccnc2C(=O)c2c1c(C(=O)OCCN1CCOCC1)c1ccccn21 | 0.0236 | 1.65 | < 0.01 | < 0.0142 | 0.0816 | 17.1 | 0.0108 | 2.22 | < 0.0136 | 16.2 | 0.252 | 5.4 | 0.0353 | 0.985 |
| CC[C@@]1(O)C(=O)OCc2c1cc1n(c2=O)Cc2c-1nc1ccccc1c2/C=N/OC(C)(C)C | < 0.0169 | 0.169 | < 0.01 | 0.53 | 0.0769 | 27.2 | < 0.01 | 11.2 | < 0.01 | 2.8 | 0.183 | 14.1 | 0.032 | 1.58 |
| Cc1cccc(C[C@H](NC(=O)Nc2ccc(Cl)cc2F)C(=O)N[C@@H]2C(=O)N3C[C@H](OC(=O)CCN(C)C)C[C@H]3C(=O)N3CCCC[C@H]3C(=O)N[C@@H](C)C(=O)N3C[C@H](C)C[C@H]3C(=O)O[C@H]2C)c1 ({NH(4-Cl-2-F-phenyl)-CO}-[Phe(3-Me)][aThr][Hyp](Propanoyl(3-NMe2))[Pip]A[Pro(4R-Me)]; ester 2-C) | 0.43 | 3.29 | 0.536 | 7.24 | 0.368 | 1.76 | 1.39 | 5.66 | 0.466 | 4.08 | 0.476 | 1.77 | 0.567 | 1.97 |
| COc1ccc(-c2nocc2-c2cc(OC)c(OC)c(OC)c2)cc1 | 0.0441 | 2.9 | 0.138 | > 100 | 0.0536 | 37.6 | 0.109 | 31.6 | 0.683 | > 85.9 | 0.358 | 28 | 21.6 | 60.7 |
| CCN(CC)CC(O)C1CCC(c2ccccc2)CC1 (stereo not given) | – | 42.9 | – | > 100 | – | > 100 | – | 47.6 | – | > 100 | – | 11.5 | – | 32.3 |
| C=C1N(C)c2ccc(Cl)cc2C1(C)C | 11 | 43.6 | 11.2 | 72.2 | – | – | 16.9 | 96.1 | 5.71 | > 100 | 6.25 | > 100 | 3.32 | 20.5 |
| COc1ccc(Cn2c(Br)c3c(c2-c2cc(OC)c(OC)c(OC)c2)CCc2sc(NC(C)=O)nc2-3)cc1 | 2.5 | 9.58 | 5.52 | > 100 | 3.44 | > 100 | 4.2 | > 100 | 6.15 | > 100 | 3.58 | > 100 | 12.7 | 83.4 |
| O=[N+]([O-])c1ccc(-c2cn(-c3ccc(Cl)cc3)cn2)cc1 | – | > 100 | – | 34.6 | – | > 100 | – | 36.5 | – | > 100 | – | > 100 | – | > 100 |
| O=C(CCl)Nc1ccc2c(c1)C(=O)c1ccc(NC(=O)CCl)cc1C2=O | 3.49 | 27.6 | – | – | 0.876 | 2.5 | 0.193 | 0.537 | 0.386 | 1.92 | 1.77 | 3.79 | 0.219 | 0.888 |
| COc1cc2c3c(n(CCCCl)c(=O)c2cc1OC)-c1ccc(C#N)cc1C3=O | 16.1 | 58.8 | 14.7 | 30.2 | 32.4 | > 100 | 14.4 | 29.4 | 19.5 | > 100 | 4.49 | 25.9 | 2.49 | 74.4 |
| COc1ccc(Nc2ncccc2C(=O)NCc2cn(Cc3cccc(Oc4ccccc4)c3)nn2)cc1 | 2.35 | 8.71 | 5.07 | > 100 | 3.86 | > 100 | 5.59 | > 100 | 4.59 | > 100 | 2.53 | 6.85 | 3.8 | > 100 |
| O=S(=O)(NCCCNc1cc(-c2cn(-c3ccccc3)nc2-c2cccc(O)c2)ccn1)c1ccc(Cl)cc1 | 0.329 | 2.24 | 1.52 | 3.25 | 1.74 | 6.1 | 1.56 | 4.19 | 1.55 | 5.18 | 1.82 | 3.46 | – | – |
